Laboratory results taken from US9096825B2, “7 α-hydroxysteroid dehydrogenase knockout mutants and use therefor” (Pharmazell GmbH, priority 2010, dated 2015).

Experiments:
[1] = target: T1, 7β-HSDH obtainable from Collinsella aerofaciens DSM 3979 (Collinsella aerofaciens, UniProt A4ECA9); experiment: Kinetic parameters of 7β-HSDH for substrates/cofactors
T1 sequence (A4ECA9 1-263): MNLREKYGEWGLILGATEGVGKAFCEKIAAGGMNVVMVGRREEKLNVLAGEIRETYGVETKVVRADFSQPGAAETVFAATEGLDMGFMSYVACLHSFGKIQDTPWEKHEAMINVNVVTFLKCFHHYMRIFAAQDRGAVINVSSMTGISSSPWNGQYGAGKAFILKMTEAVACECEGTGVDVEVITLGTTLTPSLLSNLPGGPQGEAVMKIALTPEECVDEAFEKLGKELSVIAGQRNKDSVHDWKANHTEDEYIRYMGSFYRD

[2] = test system: E. coli BL21(DE3); experiment: Incubation of cholic acid with E. coli culture, HPLC detection of the oxidation product; assay type: cell-based; conditions: 20 mM cholic acid added to 5 ml of culture
[3] = test system: E. coli BL21(DE3) Δ7α-HSDH; experiment: Incubation of cholic acid with knockout strain culture, HPLC detection of the oxidation product; assay type: cell-based; conditions: 20 mM cholic acid added to 5 ml of culture
[4] = substrate: C[C@H](CCC(=O)O)[C@H]1CC[C@H]2[C@@H]3[C@@H](O)C[C@@H]4C[C@H](O)CC[C@]4(C)[C@H]3CC[C@]12C; experiment: purified protein, by the assay type; conditions: other: substrate/cofactor of 7β-HSDH
[5] = substrate: C[C@H](CCC(=O)O)[C@H]1CC[C@H]2[C@@H]3C(=O)C[C@@H]4CC(=O)CC[C@]4(C)[C@H]3CC(=O)[C@]12C; experiment: purified protein, by the assay type; conditions: other: substrate/cofactor of 7β-HSDH

For `C[C@H](CCC(=O)O)[C@H]1CC[C@H]2[C@@H]3C(=O)C[C@@H]4C[C@H](O)CC[C@]4(C)[C@H]3CC[C@]12C` [7-keto-LCA, 7-Ketolithocholic acid], the kcat [1] was 950.77 1 μmol/(μmol × min) and the Vmax ([1]; 1 U = 1 μmol/min) was 30.77 U/mg protein.

In the case of `C[C@H](CCC(=O)O)[C@H]1CC[C@H]2[C@@H]3[C@H](O)C[C@@H]4C[C@H](O)CC[C@]4(C)[C@H]3C[C@H](O)[C@]12C` [cholic acid, Cholic acid], the “7α-HSDH activity against cholic acid (oxidation to 7-keto-3,12-dihydroxycholanic acid)” value [2] is reported as “clearly showed 7α-HSDH activity” and the “oxidation product 7-keto-3,12-dihydroxycholanic acid detected by HPLC” value [3] is reported as “No oxidation product”.

B1: 7β-HSDH obtainable from Collinsella aerofaciens DSM 3979 (Collinsella aerofaciens ATCC 25986) (protein)
chain: MNLREKYGEWGLILGATEGVGKAFCEKIAAGGMNVVMVGRREEKLNVLAGEIRETYGVETKVVRADFSQPGAAETVFAATEGLDMGFMSYVACLHSFGKIQDTPWEKHEAMINVNVVTFLKCFHHYMRIFAAQDRGAVINVSSMTGISSSPWNGQYGAGKAFILKMTEAVACECEGTGVDVEVITLGTTLTPSLLSNLPGGPQGEAVMKIALTPEECVDEAFEKLGKELSVIAGQRNKDSVHDWKANHTEDEYIRYMGSFYRD
Molecule B1 has a Km [4] of 6.23 µM, a Vmax [4] of 38.2 µmol/min/mg and a Km [5] of 9.23 µM. The Vmax [5] was 28.3 µmol/min/mg.
